# Test results from patent US20030119742A1, “Methods and compositions to treat cardiovascular disease using 139, 258, 1261, 1486, 2398, 2414, 7660, 8587,10183, 10550, 12680, 17921, 32248, 60489 or 93804” (Millennium Pharmaceuticals, Inc., priority 2001, published 2003).
# Legend:
# 1486 mRNA = assay: TaqMan analysis of 1486 mRNA in livers of treated marmosets; type: in vivo, marmoset
# Text: (§1) This example describes the TaqMan™ procedure. The Taqman™ procedure is a quantitative, reverse transcription PCR-based approach for detecting mRNA. The RT-PCR reaction exploits the 5′ nuclease activity of AmpliTaq Gold™ DNA Polymerase to cleave a TaqMan™ probe during PCR. Briefly, cDNA was generated from the samples of interest, e.g., heart, kidney, liver, skeletal muscle, and various vessels, and used as the starting material for PCR amplification. In addition to the 5′ and 3′ gene-specific primers, a gene-specific oligonucleotide probe (complementary to the region being amplified) was included in the reaction (i.e., the Taqman™ probe). […]
# (§2) During the PCR reaction, cleavage of the probe separates the reporter dye and the quencher dye, resulting in increased fluorescence of the reporter. Accumulation of PCR products is detected directly by monitoring the increase in fluorescence of the reporter dye. When the probe is intact, the proximity of the reporter dye to the quencher dye results in suppression of the reporter fluorescence. […]
# 12680 mRNA = assay: TaqMan analysis of 12680 mRNA in in vivo marmoset models
# Text: as §1, §2
# 10550 mRNA = assay: TaqMan analysis of 10550 mRNA in in vivo marmoset models
# Text: as §1, §2
# 10183 mRNA = assay: TaqMan analysis of 10183 mRNA in in vivo marmoset models
# Text: As assessed by TaqMan analysis, 10183 mRNA is repressed by probucol and cerivastatin/fenofibrate in in vivo marmoset models. Probucol is used clinically for the treatment of atherosclerosis/coronary artery disease. Genes that are regulated by probucol in animal models and/or in vitro models are predicted to be responsible for the therapeutic benefit of this agent and represent new therapeutic targets for the treatment of cardiovascular disease/atherosclerosis/dyslipidemia/lipid disorders. Fibrates are used clinically for the reduction of triglycerides and statins for the reduction of cholesterol, both well-defined risk factor for atherosclerosis/coronary artery disease. Genes that are regulated by this combination treatment in animal models and/or in vitro models are predicted to be responsible for the therapeutic benefit of these agents and represent new therapeutic targets for the treatment of cardiovascular disease/atherosclerosis/dyslipidemia/lipid disorders. […] PPAR alpha agonists are used clinically for the reduction of triglycerides and statins for the reduction of cholesterol, both well-defined risk factor for atherosclerosis/coronary artery disease. […]
# 1261 mRNA = assay: TaqMan analysis of 1261 mRNA in human microvascular endothelial cells (HMVEC) from the heart; type: cell-based; conditions: HMVEC from the heart treated with the factor
# 2414 mRNA = assay: TaqMan analysis of 2414 mRNA during cytokine stimulation of endothelial cells and monocyte/macrophages; type: cell-based; conditions: cytokine stimulation of either endothelial cells or monocyte/macrophages
# Text: CD40L, TNFalpha, IL-1, and IFNgamma were used to stimulate either endothelial cells or monocyte/macrophages. These cytokines initiate/sustain the atherosclerotic pathogenesis
# This example describes the TaqMan™ procedure.
# 2398 = conditions: endothelial cells
# Text: as §1, §2
# 32248 mRNA = assay: TaqMan analysis of 32248 mRNA in monkey liver model; type: in vivo
# Text: As assessed by TaqMan analysis, 32248 mRNA was repressed by n-3 polyunsaturated fatty acid in monkey liver model. […] Genes that are regulated by polyunsaturated fatty acids in animal models and/or in vitro models are predicted to be responsible for the therapeutic benefit of this agent and represent new therapeutic targets for the treatment of cardiovascular disease/atherosclerosis/dyslipidemia/lipid disorders. […] Cholestyramine is used clinically for the reduction of cholesterol, a defined risk factor for atherosclerosis/coronary artery disease. Genes that are regulated by cholestyramine in animal models and/or in vitro models are predicted to be responsible for the therapeutic benefit of this agent and represent new therapeutic targets for the treatment of cardiovascular disease/atherosclerosis/dyslipidemia/lipid disorders. Fibrates are used clinically for the reduction of triglycerides and statins for the reduction of cholesterol, both well-defined risk factor for atherosclerosis/coronary artery disease. Genes that are regulated by this combination treatment in animal models and/or in vitro models are predicted to be responsible for the therapeutic benefit of these agents and represent new therapeutic targets for the treatment of cardiovascular disease/atherosclerosis/dyslipidemia/lipid disorders. 32248 was highly expressed in human liver. […]
Molecule,expression of human 1261 mRNA (1261 mRNA),expression of 2414 mRNA (2414 mRNA),also measured
CC(C)(Sc1cc(C(C)(C)C)c(O)c(C(C)(C)C)c1)Sc1cc(C(C)(C)C)c(O)c(C(C)(C)C)c1 [probucol],,,1486 mRNA (1486 mRNA): repressed; 12680 mRNA (12680 mRNA): repressed; 10550 mRNA (10550 mRNA): repressed; 10183 mRNA (10183 mRNA): repressed
IL-1beta: pro-angiogenic factor interleukin 1 beta,upregulated,,
TNF-alpha,upregulated,up-regulated,
VEGF,upregulated,,2398 expression 2398: upregulated
n-3 polyunsaturated fatty acid,,,32248 mRNA (32248 mRNA): repressed
"CD40L: cytokine used to stimulate endothelial cells or monocyte/macrophages (protein, UniProt P29965 113-261, looked up) CD40 ligand, soluble form: MQKGDQNPQIAAHVISEASSKTTSVLQWAEKGYYTMSNNLVTLENGKQLTVKRQGLYYIYAQVTFCSNREASSQAPFIASLCLKSPGRFERILLRAANTHSSAKPCGQQSIHLGGVFELQPGASVFVNVTDPSQVSHGTGFTSFGLLKL",,up-regulated,
"IFNgamma: cytokine used to stimulate endothelial cells or monocyte/macrophages (protein, UniProt P01579 24-161, looked up) Interferon gamma: QDPYVKEAENLKKYFNAGHSDVADNGTLFLGILKNWKEESDRKIMQSQIVSFYFKLFKNFKDDQSIQKSVETIKEDMNVKFFNSNKKKRDDFEKLTNYSVTDLNVQRKAIHELIQVMAELSPAAKTGKRKRSQMLFRG",,up-regulated,
